pEC50, pIC50, pKi: −log10 of the molar value.
Columns and labels:
D(1A) dopamine receptor [1] = biological target: T1, D(1A) dopamine receptor (Homo sapiens, UniProt P21728); assay: Agonist activity at dopamine D1 receptor assessed as [35S]GTPgammaS binding in cell-based assay relative to control; format: functional
[2] = biological target: T2, 5-hydroxytryptamine receptor 1A (Homo sapiens) (UniProt P08908); assay: Displacement of [3H]-8-OH-DPAT from human 5HT1A receptor expressed in HEK293 cells at 10 uM; format: cell-based
T2 sequence (whole entry): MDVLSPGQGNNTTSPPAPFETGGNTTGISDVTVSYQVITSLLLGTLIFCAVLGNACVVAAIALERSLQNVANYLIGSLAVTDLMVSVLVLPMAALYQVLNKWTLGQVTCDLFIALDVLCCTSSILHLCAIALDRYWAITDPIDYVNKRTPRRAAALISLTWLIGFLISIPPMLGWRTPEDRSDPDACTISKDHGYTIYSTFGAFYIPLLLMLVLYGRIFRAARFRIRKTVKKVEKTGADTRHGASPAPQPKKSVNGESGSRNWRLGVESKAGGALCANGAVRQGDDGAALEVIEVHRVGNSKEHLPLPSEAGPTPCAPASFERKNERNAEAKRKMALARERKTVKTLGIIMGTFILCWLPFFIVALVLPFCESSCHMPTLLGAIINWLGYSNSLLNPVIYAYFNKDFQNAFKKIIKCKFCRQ

D(1A) dopamine receptor [3] = biological target: T1, D(1A) dopamine receptor; assay: Displacement of [3H]SCH23390 from human dopamine D1 receptor expressed in HEK293 cells; format: cell-based
[4] = biological target: 5-hydroxytryptamine receptor 2A (Homo sapiens) (UniProt P28223); assay: Displacement of [3H]Ketanserin from human 5HT2A receptor expressed in HEK293 cells at 10 uM; format: cell-based
Sequence of 5-hydroxytryptamine receptor 2A (Homo sapiens) (P28223 whole entry): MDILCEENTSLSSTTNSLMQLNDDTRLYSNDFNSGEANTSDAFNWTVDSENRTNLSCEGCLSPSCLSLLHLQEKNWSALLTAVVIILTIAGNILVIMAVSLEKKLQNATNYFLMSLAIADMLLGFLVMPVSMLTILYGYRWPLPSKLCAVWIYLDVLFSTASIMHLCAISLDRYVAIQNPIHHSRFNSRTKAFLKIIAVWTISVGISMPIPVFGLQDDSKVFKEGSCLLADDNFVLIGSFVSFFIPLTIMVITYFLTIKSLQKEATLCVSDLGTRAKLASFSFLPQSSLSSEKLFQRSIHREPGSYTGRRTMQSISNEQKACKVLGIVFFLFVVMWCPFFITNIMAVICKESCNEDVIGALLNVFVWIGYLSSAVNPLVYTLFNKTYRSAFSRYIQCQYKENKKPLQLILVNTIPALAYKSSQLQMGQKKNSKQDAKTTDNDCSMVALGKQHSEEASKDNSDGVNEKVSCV

D(2) dopamine receptor [5] = biological target: T3, D(2) dopamine receptor (Homo sapiens, UniProt P14416); assay: Displacement of [3H]Spiprone from human dopamine D2 receptor expressed in HEK293 cells at 10 uM; format: cell-based
T3 sequence (P14416 whole entry): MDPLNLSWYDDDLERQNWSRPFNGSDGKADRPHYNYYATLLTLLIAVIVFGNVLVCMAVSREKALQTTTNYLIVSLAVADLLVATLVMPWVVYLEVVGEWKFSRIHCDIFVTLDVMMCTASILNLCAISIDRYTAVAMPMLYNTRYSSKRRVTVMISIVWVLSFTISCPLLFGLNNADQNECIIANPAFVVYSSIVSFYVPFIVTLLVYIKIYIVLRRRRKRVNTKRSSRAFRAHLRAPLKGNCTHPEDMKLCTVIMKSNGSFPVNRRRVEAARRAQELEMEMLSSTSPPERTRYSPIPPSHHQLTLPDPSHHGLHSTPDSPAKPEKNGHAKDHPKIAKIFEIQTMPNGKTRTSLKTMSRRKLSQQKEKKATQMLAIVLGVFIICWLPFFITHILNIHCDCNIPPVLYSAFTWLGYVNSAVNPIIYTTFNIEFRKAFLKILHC

D(1A) dopamine receptor [6] = biological target: T1, D(1A) dopamine receptor; assay: Antagonist activity at dopamine D1 receptor assessed as inhibition of [35S]GTPgammaS binding in cell-based assay; format: functional
D(1A) dopamine receptor [7] = biological target: T1, D(1A) dopamine receptor; assay: Antagonist activity at dopamine D1 receptor assessed as inhibition of [35S]GTPgammaS binding in cell-based assay relative to control; format: functional
D(1A) dopamine receptor [8] = biological target: T1, D(1A) dopamine receptor; assay: Displacement of [3H]SCH23390 from human dopamine D1 receptor expressed in HEK293 cells at 10 uM; format: cell-based
[9] = biological target: T4, 5-hydroxytryptamine receptor 1A (Homo sapiens, UniProt P08908); assay: Displacement of [3H]-8-OH-DPAT from human 5HT1A receptor expressed in HEK293 cells; format: cell-based
T4 sequence (P08908 whole entry): T2 sequence (whole entry)

D(2) dopamine receptor [10] = biological target: T3, D(2) dopamine receptor; assay: Displacement of [3H]Spiprone from human dopamine D2 receptor expressed in HEK293 cells; format: cell-based
D(1A) dopamine receptor [11] = biological target: D(1A) dopamine receptor (Rattus norvegicus, UniProt P18901); assay: Agonist activity at D1 receptor in rat striatum assessed as synaptosomal adenylate cyclase activity; format: functional, tissue-based
Sequence of D(1A) dopamine receptor (Rattus norvegicus, UniProt P18901) (P18901 whole entry): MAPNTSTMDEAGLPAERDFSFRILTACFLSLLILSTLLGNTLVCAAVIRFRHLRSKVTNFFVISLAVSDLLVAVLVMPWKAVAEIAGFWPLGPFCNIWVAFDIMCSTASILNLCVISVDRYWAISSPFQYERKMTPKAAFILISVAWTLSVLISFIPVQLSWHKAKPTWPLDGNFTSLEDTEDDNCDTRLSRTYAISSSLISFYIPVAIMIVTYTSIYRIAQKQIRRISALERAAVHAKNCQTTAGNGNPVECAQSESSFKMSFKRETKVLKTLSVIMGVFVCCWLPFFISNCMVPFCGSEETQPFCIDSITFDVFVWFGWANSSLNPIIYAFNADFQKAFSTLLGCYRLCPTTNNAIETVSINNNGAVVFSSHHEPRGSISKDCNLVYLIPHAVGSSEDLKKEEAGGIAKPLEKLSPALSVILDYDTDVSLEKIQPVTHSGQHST

T1 sequence (P21728 whole entry): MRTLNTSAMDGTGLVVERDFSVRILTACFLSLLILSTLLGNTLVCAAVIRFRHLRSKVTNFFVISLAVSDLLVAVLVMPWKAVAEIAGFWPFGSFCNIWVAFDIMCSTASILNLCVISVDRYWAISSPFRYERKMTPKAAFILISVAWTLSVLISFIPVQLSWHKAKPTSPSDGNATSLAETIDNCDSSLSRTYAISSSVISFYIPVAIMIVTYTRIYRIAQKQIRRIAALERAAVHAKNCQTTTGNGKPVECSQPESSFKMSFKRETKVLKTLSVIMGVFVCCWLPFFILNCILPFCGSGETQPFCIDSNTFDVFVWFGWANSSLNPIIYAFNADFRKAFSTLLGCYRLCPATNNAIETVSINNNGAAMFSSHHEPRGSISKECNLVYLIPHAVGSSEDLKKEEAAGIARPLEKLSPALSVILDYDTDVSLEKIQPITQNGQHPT

Compound	Emax (D(1A) dopamine receptor [1]) [%]	inhibition [2] [%]	pIC50 (D(1A) dopamine receptor [3])	pKi (D(1A) dopamine receptor [3])	inhibition [4] [%]	inhibition (D(2) dopamine receptor [5]) [%]	pIC50 (D(1A) dopamine receptor [6])	Imax (D(1A) dopamine receptor [7]) [%]	inhibition (D(1A) dopamine receptor [8]) [%]	pKi [9]	pIC50 (D(2) dopamine receptor [10])	pKi (D(2) dopamine receptor [10])	pEC50 (D(1A) dopamine receptor [11])
Oc1cc2c(cc1O)C(c1ccccc1)CNCC2 (stereo not given)	100	–	–	–	–	–	–	–	–	–	–	–	–
COc1cc2c(c(OC)c1)CN1CCc3cc4c(cc3[C@@H]1C2)OCO4	–	57.6	6.85	7.13	31.3	1.02	–	–	–	–	–	–	–
COc1cc2c(c(OC)c1)CN1CCc3cc(OC)c(OC)c(OC)c3[C@@H]1C2	–	66.9	7.34	7.62	48.8	51.7	4.93	82.5	–	–	–	–	–
COc1cc(OC)c2c(c1CO)CCN1Cc3cc4c(cc3C[C@@H]21)OCO4	–	–	–	–	16.9	–	–	–	17.4	–	–	–	–
COc1cc2c(c(OC)c1)CN1CCc3cc(OC)cc(OC)c3[C@@H]1C2	–	61.7	7.84	8.10	25	81.9	4.63	94.2	–	–	–	–	–
COc1ccc2c(c1)C[C@H]1c3c(OC)cc(OC)c(CO)c3CCN1C2	–	1.34	–	–	21.4	–	–	–	56	–	–	–	–
COc1cc2c(c(OC)c1)CN1CCc3cc(OC)c(OCc4ccccc4)c(OC)c3[C@@H]1C2	–	43.7	–	–	69.1	54.2	–	–	59.3	–	–	–	–
COc1cc(OC)c2c(c1CO)C[C@H]1c3cc4c(cc3CCN1C2)OCO4	–	–	6.49	6.74	56.2	41.8	–	–	–	6.22	–	–	–
CN1CCc2cc(Cl)c(O)cc2[C@@H](c2ccccc2)C1	–	–	–	–	–	–	–	80	–	–	–	–	–
COc1ccc(OC)c2c1C[C@H]1c3c(OC)cc(OC)c(CO)c3CCN1C2	–	33.1	–	–	25.3	–	–	–	48.8	–	–	–	–
COc1cc2c(cc1O)[C@@H]1Cc3cc(C)cc(C)c3CN1CC2	–	74.5	7.25	7.54	27.1	–	–	–	–	–	6.34	6.79	–
COc1cc2c(c(OC)c1)CN1CCc3cc(OC)c(OC)cc3[C@@H]1C2	–	66.9	6.72	6.97	17.2	3.48	–	–	–	–	–	–	–
COc1ccc2c(c1)C[C@H]1c3cc(O)c(OC)cc3CCN1C2	–	65.6	7.16	7.45	68.7	–	–	–	–	–	6.06	6.46	–
COc1cc2c(cc1O)[C@@H]1Cc3c(CO)c(OC)cc(OC)c3CN1CC2	–	80.9	7.51	7.76	18.4	–	–	–	–	–	6.29	6.83	–
COc1ccc2c(c1)C[C@H]1c3cc(OC)c(OC)cc3CCN1C2	–	57.4	–	–	33.5	10.2	–	–	81.9	–	–	–	–
COc1cc2c(cc1O)[C@@H]1Cc3ccc(O)c(OC)c3CN1CC2 [STEPHOLIDINE]	–	89.3	7.91	8.21	45.6	–	–	–	–	–	6.98	7.25	4.39
COc1cc2c(c(OC)c1)CN1CCc3cc(OC)c(O)c(OC)c3[C@@H]1C2	–	44.9	7.01	7.28	51.6	58.8	–	–	–	–	–	–	–
COc1ccc2c(c1)C[C@H]1c3cc4c(cc3CCN1C2)OCO4	–	5.48	–	–	20.8	22.7	–	–	83.2	–	–	–	–
COc1cc2c(cc1OC)C1Cc3cc(C)cc(C)c3CN1CC2 (racemic)	–	28.4	5.54	5.84	19.9	77.4	–	–	–	–	–	–	–
COc1cc2c(c(OC)c1)CN1CCc3cc(OC)c(O)cc3[C@@H]1C2	–	56.9	8.31	–	32.4	83.3	5.86	94.3	–	–	–	–	–
COc1cc2c(cc1OC)[C@@H]1Cc3cc(C)cc(C)c3CN1CC2	–	54.8	6.16	6.47	36.5	–	–	–	–	–	5.94	6.65	–
COc1cc2c(c(OC)c1OC)[C@@H]1Cc3cc4c(cc3CN1CC2)OCO4	–	70.3	–	–	72.7	70.7	–	–	43.4	–	–	–	–
COc1cc(OC)c2c(c1CO)C[C@H]1c3c(cc(OC)c(OC)c3OC)CCN1C2	–	67.4	–	–	59.7	47.2	–	–	7.37	–	–	–	–
COc1cc2c(cc1OC)[C@@H]1Cc3c(CO)c(OC)cc(OC)c3CN1CC2	–	–	6.94	7.19	24.1	39.5	–	–	–	6.14	–	–	–
COc1ccc2c(c1)C[C@H]1c3cc(OCc4ccccc4)c(OC)cc3CCN1C2	–	37.3	–	–	13.5	36	–	–	86	–	–	–	–
